Experiments:
HLA B*0702 = HLA B*0702 (Homo sapiens, UniProt P01889); format: binding; conditions: positional scanning combinatorial 9-mer library; normalized to 1.0 for the best residue at each position
HLA A*3001 = HLA A*3001 (Homo sapiens, UniProt P04439, D140H/D185E/E176W/F33S/G80R/H175R/K168Q/R138E/R41S); experiment: biochemical; format: binding
HLA B*5101 = HLA B*5101 (Homo sapiens, UniProt P01889, A329T/A93T/A95T/C349S/D138N/D201E/D98Y/E187L/E204Q/E69T/G107R/I218V/K202T/L105A/L119W/N104I/Q94N/R106L/R155S/R180L/S101N/S121T/S35A/S48A/V306I/V36M/Y195H/Y91F); format: binding
HLA B*2705 = HLA B*2705 (Homo sapiens, UniProt P01889, D138H/D201E/E176V/E204Q/G107R/H137Y/K202T/N104T/N87E/Q56L/Q94K/R106L/R155S/R180L/S101D/S121N/S48T/Y140D/Y33H/Y91C); format: binding; conditions: positional scanning combinatorial 9-mer library; normalized to 1.0 for the best residue at each position
HLA B*5301 = HLA B*5301 (Homo sapiens, UniProt P01889, A329T/A93T/A95T/C349S/D201E/D98Y/E176V/E187L/E204Q/E69T/G107R/I218V/K202T/L105A/L119I/N104I/Q94N/R106L/R155S/R180L/S101N/S121R/S35A/S48A/T118I/V127L/V306I/V36M/Y140S/Y91F); format: binding
HLA B*5801 = HLA B*5801 (Homo sapiens, UniProt P01889, A329T/C349S/D201E/D98Y/E176V/E187L/E204Q/E69T/G107R/I218V/I90N/K202T/L105A/L119I/N104I/N87E/Q89R/Q94S/R106L/R155S/R180L/R86G/S101N/S121R/S35A/S48A/T118I/V127L/V306I/V36M/Y140S/Y91M); format: binding
HLA B*5401 = HLA B*5401 (Homo sapiens, UniProt P01889, A329T/C349S/D138N/D201E/E176V/E187T/E204Q/E69G/I76V/K202T/L119W/R155S/R180L/S121T/S35A/S48A/V127L/V306I/V36M/Y140L); format: binding
HLA B*3501 = HLA B*3501 (Homo sapiens, UniProt P01889, A329T/A93T/A95T/C349S/D201E/D98Y/E176V/E187L/E204Q/E69T/I218V/K202T/L119I/Q94N/R155S/R180L/S121R/S35A/S48A/T118I/V127L/V306I/V36M/Y140S/Y91F); format: binding
HLA A*6802 = HLA A*6802 (Homo sapiens, UniProt P04439, A269V/D140Y/D185E/E176V/E277Q/E87N/F33Y/G231S/I121R/I166T/I218V/L180W/L300P/L318F/N151K/P208A/P217A/Q86R/R138H/R169H/S129P/T345S/V36M); format: binding
HLA B*1501 = HLA B*1501 (Homo sapiens, UniProt P01889, A329T/A93T/A95T/C349S/D201E/D98Y/E187L/E204Q/E69M/E70A/K202T/N87E/Q94N/R155S/R180W/S121R/S35A/S48A/V306I/V36M/Y140S/Y91S); experiment: biochemical; format: binding
H-2 D^b = H-2 D^b (Mus musculus, UniProt P01899); format: binding
HLA A*0201 = HLA A*0201 (Homo sapiens, UniProt P04439, D140Y/D185E/D98H/E176V/E277Q/G131W/G231S/I119V/I121R/I166T/I218V/L300P/L318F/N151K/N90K/P208A/P217A/Q86G/Q94H/R138H/R169H/T345S); conditions: positional scanning combinatorial 9-mer library; normalized to 1.0 for the best residue at each position
HLA A*3201 = HLA A*3201 (Homo sapiens, UniProt P04439, A270S/D101S/D185E/E176V/E277Q/F133L/G103R/G107R/G231S/H175R/I121M/I218V/I322F/K168Q/L105A/L300P/L318F/M331R/P208A/P217A/Q94H/R106L/R138Q/S129P/T104I/T323A/T345S/V100E/V321M/V358M); experiment: biochemical; format: binding
HLA B*5802 = HLA B*5802 (Homo sapiens, UniProt P01889, A329T/C349S/D201E/D98Y/E176V/E187L/E204Q/E69T/G107R/I218V/I90N/K202T/L105A/N104I/N87E/Q89R/Q94S/R106L/R155S/R180L/R86G/S101N/S121W/S35A/S48A/V127L/V306I/V36M/Y140S/Y91M); format: binding
H-2 D^d = H-2 D^d (Mus musculus, UniProt P01900); format: binding
H-2 K^k = H-2 K^k (Mus musculus, UniProt P04223); format: binding
HLA B*0801 = HLA B*0801 (Homo sapiens, UniProt P01889, A93T/A95T/D138N/E176V/E187T/K202T/Q94N/R180D/S35A/V36M/Y33D/Y91F); experiment: biochemical; format: binding
HLA B*1503 = HLA B*1503 (Homo sapiens, UniProt P01889, A329T/A93T/A95T/C349S/D201E/D98Y/E187L/E204Q/K202T/N87E/Q94N/R155S/R180L/S121R/S35A/V306I/V36M/Y140S/Y91S); experiment: biochemical; format: binding

H-2 D^b, sequence (P01887 21-119): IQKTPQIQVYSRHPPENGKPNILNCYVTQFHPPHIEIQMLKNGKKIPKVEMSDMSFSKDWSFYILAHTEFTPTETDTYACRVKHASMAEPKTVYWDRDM
H-2 D^b, sequence (P01899 25-362): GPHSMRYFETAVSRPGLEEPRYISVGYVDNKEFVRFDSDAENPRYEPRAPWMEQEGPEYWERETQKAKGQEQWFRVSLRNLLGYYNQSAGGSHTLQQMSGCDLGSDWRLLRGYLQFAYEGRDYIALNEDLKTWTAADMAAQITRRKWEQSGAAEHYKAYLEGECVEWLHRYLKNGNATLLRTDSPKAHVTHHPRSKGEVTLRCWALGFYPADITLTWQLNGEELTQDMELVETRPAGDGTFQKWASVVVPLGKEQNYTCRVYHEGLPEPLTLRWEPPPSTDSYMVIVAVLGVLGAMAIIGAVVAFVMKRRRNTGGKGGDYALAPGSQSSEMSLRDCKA
H-2 K^k, sequence (P01887 21-119): as the sequence (P01887 21-119) above
H-2 K^k, sequence (P04223 22-369): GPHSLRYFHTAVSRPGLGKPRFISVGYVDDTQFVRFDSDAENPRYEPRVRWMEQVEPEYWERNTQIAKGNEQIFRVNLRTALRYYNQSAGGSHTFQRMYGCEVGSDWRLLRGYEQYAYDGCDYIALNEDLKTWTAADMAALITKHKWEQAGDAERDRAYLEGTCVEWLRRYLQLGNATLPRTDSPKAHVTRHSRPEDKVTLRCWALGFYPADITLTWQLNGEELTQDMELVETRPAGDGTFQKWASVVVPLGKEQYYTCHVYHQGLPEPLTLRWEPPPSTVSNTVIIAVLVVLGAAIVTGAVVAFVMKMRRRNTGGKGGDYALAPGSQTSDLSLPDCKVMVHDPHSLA
H-2 D^d, sequence (P01900 whole entry, looked up): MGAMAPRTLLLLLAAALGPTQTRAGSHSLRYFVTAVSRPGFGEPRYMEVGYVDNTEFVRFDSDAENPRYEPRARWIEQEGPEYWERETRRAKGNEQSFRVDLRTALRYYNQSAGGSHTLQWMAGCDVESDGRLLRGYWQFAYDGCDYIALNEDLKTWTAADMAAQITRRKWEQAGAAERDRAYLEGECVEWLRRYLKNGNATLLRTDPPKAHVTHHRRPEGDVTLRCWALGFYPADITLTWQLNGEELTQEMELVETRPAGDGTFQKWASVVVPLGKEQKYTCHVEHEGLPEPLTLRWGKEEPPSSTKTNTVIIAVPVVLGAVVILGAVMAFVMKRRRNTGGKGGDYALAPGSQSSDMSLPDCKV

Sequence | Normalized average relative binding affinity (ARB), HLA B*0702 (HLA B*0702) | Normalized average relative binding affinity (ARB), HLA A*3001 (HLA A*3001) | Normalized average relative binding affinity (ARB), HLA B*5101 (HLA B*5101) | Normalized average relative binding affinity (ARB), HLA B*2705 (HLA B*2705) | Normalized average relative binding affinity (ARB), HLA B*5301 (HLA B*5301) | Normalized average relative binding affinity (ARB), HLA B*5801 (HLA B*5801) | Normalized average relative binding affinity (ARB), HLA B*5401 (HLA B*5401) | Normalized average relative binding affinity (ARB), HLA B*3501 (HLA B*3501) | Normalized average relative binding affinity (ARB), HLA A*6802 (HLA A*6802) | Normalized average relative binding affinity (ARB), HLA B*1501 (HLA B*1501) | Normalized average relative binding affinity (ARB), H-2 Db (H-2 D^b) | Normalized average relative binding affinity (ARB), HLA A*0201 (HLA A*0201) | Normalized average relative binding affinity (ARB), HLA A*3201 (HLA A*3201) | Normalized average relative binding affinity (ARB), HLA B*5802 (HLA B*5802) | Normalized average relative binding affinity (ARB), H-2 Dd (H-2 D^d) | Normalized average relative binding affinity (ARB), H-2 Kk (H-2 K^k) | Normalized average relative binding affinity (ARB), HLA B*0801 (HLA B*0801) | Normalized average relative binding affinity (ARB), HLA B*1503 (HLA B*1503)
XXDXXXXXX [3064.0043] | 0.031 | 0.0018 | 0.070 | 0.020 | 0.096 | 0.11 | 0.0033 | 0.11 | 0.025 | 0.039 | 0.022 | 0.46 | 0.085 | 0.047 | 0.012 | 0.059 | 0.015 | 0.032
XXEXXXXXX [3064.0044] | 0.052 | 0.0031 | 0.070 | 0.071 | 0.031 | 0.095 | 0.0049 | 0.073 | 0.046 | 0.040 | 0.032 | 0.037 | 0.14 | 0.049 | 0.0030 | 0.27 | 0.034 | 0.044
XXFXXXXXX [3064.0045] | 0.067 | 0.041 | 0.65 | 1.0 | 0.19 | 0.52 | 0.11 | 0.49 | 0.82 | 0.83 | 0.099 | 0.63 | 0.98 | 0.41 | 0.0072 | 0.39 | 0.19 | 0.62
XXGXXXXXX [3064.0046] | 0.052 | 0.0022 | 0.078 | 0.17 | 0.046 | 0.12 | 0.025 | 0.068 | 0.061 | 0.14 | 0.13 | 0.098 | 0.20 | 0.17 | 0.0040 | 0.19 | 0.086 | 0.063
